Data set [1] has as its system coq null mutants. Particulars: for viability of coq null mutants: 200 μM fatty acid, plate dilution assay. The protocol: FIG. 3. […] Yeast coq3, coq7 and coq9 null mutants were prepared in the W303 yeast genetic background (WT). Yeast strains were grown in YPD medium (1% Bacto-yeast extract, 2% Bacto-peptone, 2% dextrose) and harvested while in log phase growth (OD600 nm=0.1-1.0). Cells were washed twice with sterile water and resuspended in phosphate buffer (0.10 M sodium phosphate, pH 6.2, 0.2% dextrose) to an OD600 nm=0.2. Samples were removed and 1:5 serial dilutions starting at 0.20 OD/ml were plated on YPD plate medium, to provide a zero time untreated control (shown in top left panel). The designated fatty acids were added to 200 μM final concentration to 20 ml of yeast in phosphate buffer. At 2 h, 4 h, and 16 h samples were removed, 1:5 serial dilutions prepared, and spotted onto YPD plate medium. Pictures were taken after 2 days of growth at 30° C.
FIG. 4. […] The fatty acid sensitive assay was performed as described in FIG. 3, except that 100 μl aliquots were removed at 1, 2, and 4 h and, following dilution, spread onto YPD plates. Pictures were taken after 2 to 2.5 days, and the number of colonies counted.
Q-less yeast (coq mutants) provide an ideal system to assess in vivo autoxidation of fatty acids. Coenzyme Q (ubiquinone or Q) serves as a small lipophilic antioxidant as well as an electron shuttle in the respiratory chain of the mitochondrial inner membrane. Ten S. cerevisiae genes (COQ1-COQ10) are required for coenzyme Q biosynthesis and function, and the deletion of any results in respiratory deficiency (Tran U C, Clarke C F. Mitochondrion 2007; 7S,S62).
A plate dilution assay can be used to assess PUFA sensitivity. This assay can be performed by spotting serial five-fold dilutions of aliquots onto YPD plate media (FIG. 3). The sensitivity of the different strains can be observed by visual inspection of the density of cells in each spot.

For data set [2], the system named is Wild-type yeast. The note with it: 200 μM fatty acid, 4 h incubation.
Protocol: Uptake of exogenously supplied fatty acids by yeast. WT (W303) yeast were harvested at log phase and incubated in the presence of 200 μM of the designated fatty acid for either 0 or 4 h.
Wild-type yeast were harvested during log phase growth and incubated in the presence of exogenously added fatty acid (for 0 or 4 h) in the presence of phosphate buffer plus 0.20% dextrose, as described for the fatty acid sensitivity assay. Cells were harvested, washed twice with 10 ml sterile water, and the yeast cell pellets were then processed by alkaline methanolysis as described above. The fatty acids are detected as methylesters (FAMEs) following GC-MS with C17:0 added as an internal standard (FIG. 6). The amounts of 18:3 and D4 detected after 4 h incubation were extrapolated from the calibration curve.
The test system of data set [3] is wild-type (strain W303-1B) cells. Particulars: four hour treatment; cited from earlier work.
The subject of data set [4] is coq null mutants. The note with it: four hour treatment; cited from earlier work.
Data set [5] can be described thus: Kinetics of oxygen consumption during oxidation in chlorobenzene initiated by AMVN. The format is physicochemical. The protocol:
FIG. 7. Kinetics of O2 consumption accompanied the oxidation of 0.71 M LA (plots 1 and 2) and 0.71 M D2-LA (plot 3) in chlorobenzene initiated by 40 mM AMVN at 37° C. Plot 2—0.23 mM HPMC was added to 0.71 M LA.
The kinetics of oxygen consumption during the oxidation of LA and D2-LA was studied with a glass capillary microvolumeter (FIG. 7). The rate of oxidation, ROX, was measured as a slope of [O2] traces. The rate of initiation, RIN, was determined by the inhibitor method with HPMC (“6-hydroxy-2,2,5,7,8-pentamethylbenzochroman”) as a reference inhibitor. RIN was calculated from the induction period of inhibited oxidation, tIND: RIN=2·[HPMC]/tIND. […] When the process was inhibited by 0.23 mM chain-breaking antioxidant HPMC, the duration of the induction period, tIND, was about 48 min, with the RIN value of around 0.16×10^−6 M/s. […] The latter precludes a direct determination of RIN. […] An estimated kinetic isotope effect (“KIE”), from comparison of ROX for LA and D2-LA, was around 6.1×10^−6/0.18×10^−6≈35. A similar KIE was determined during the oxidation of LA and 11,11-d2-LA in Triton X-100 aqueous micelles (data not shown). For comparative purposes, the theoretical KIE is 6.9 at 25° C. See Carpenter, “Determination of Organic Reaction Mechanisms” (John Wiley & Sons, 1984), p. 89.

Data set [6] in a line: Kinetics of the oxidation of mixtures of D2-LA and LA. Particulars: data not shown. The data set is classed as physicochemical. The protocol: FIG. 8. Dependence of the rate of oxidation of the mixture of LA and D2-LA in chlorobenzene solution on mixture composition. Conditions: [LA]+[11,11-d2-LA]=0.775 M; [AMVN]=0.0217 M; 37° C. RIN=(1.10±0.08)×10^−7 M/sec.
To simulate the likely in vivo conditions, the kinetics of the oxidation of the mixtures of D2-LA and LA were studied (FIG. 8). In the experiments, the concentration of LA plus 11,11-d2-LA was 0.775 M; the concentration of AMVN was 0.0217 M; and the reactions were carried out at 37° C. The results afforded an RIN of 1.10±0.08×10^−7 M/sec.

With `[2H]C([2H])(/C=C\CC)/C=C\CC/C=C\CCCCCCC(=O)O` [14,14-D2-linolenic acid, 14,14-Dideutero-cis,cis,cis-octadeca-8,12,15-trienoic acid], the “protection in the yeast model” value in data set [1] is recorded as “comparable protection”.
As to `[2H]C([2H])(/C=C\CC)/C=C\C([2H])([2H])/C=C\CCCCCCCC(=O)O` [D4-linolenic acid, 11,11,14,14-Tetradeutero-cis,cis,cis-octadeca-8,12,15-trienoic acid], the incorporation by yeast entry in data set [2] is on record as “avidly incorporate”. Besides, in data set [1], the “viability of coq null mutants” value is reported as “not killed”. Also, the “viability of treated cells compared with oleic” value in data set [1] (quantitative colony counting) is given as “similar”.
As to `CC/C=C\C/C=C\C/C=C\CCCCCCCC(=O)O` [linolenic acid, (9Z,12Z,15Z)-9,12,15-Octadecatrienoic acid, reference compound], in data set [2], the incorporation by yeast entry is on record as “avidly incorporate”. In data set [3], the “wild-type cells remaining viable” value is reported as 70%. Besides, in data set [1], the “viability of coq null mutants” value was “dramatic loss of viability”. In data set [4], the “Q-less (coq2, coq3, and coq5) yeast mutants viable following treatment” value is “Less than 1%”.
As to `[2H]C([2H])(/C=C\CCCCC)/C=C\CCCCCCCC(=O)O` [D2-LA, 11,11-Dideutero-cis,cis-octadeca-9,12-dienoic acid], in data set [5], the “effect of addition of HPMC” value was “did not result in the decrease in ROX and the appearance of any detectable induction period”; the “length of the kinetic chain v=ROX/RIN” value is listed as “≈ 1.1”. In addition, the “effect on oxidation of mixture with non-deuterated methyl linoleate” value in data set [6] is listed as “qualititatively similar effect”.
`CCCCC/C=C\C/C=C\CCCCCCCC(=O)O` [LA, (9Z,12Z)-9,12-Octadecadienoic acid, reference compound]: the “length of the kinetic chain v=ROX/RIN” value in data set [5] was found to be 38±3.
As to `[2H]C([2H])(/C=C\C/C=C\CC)C/C=C\CCCCCCC(=O)O` [11,11-D2-linolenic acid, 11,11-Dideutero-cis,cis,cis-octadeca-8,12,15-trienoic acid], in data set [1], the “protection in the yeast model” value is reported as “comparable protection”.
